Test results: ChEMBL document CHEMBL3414474, “Design and synthesis of piperidine derivatives as novel human heat shock protein 70 inhibitors for the treatment of drug-resistant tumors” (Eur J Med Chem, 2015)
Calls of active or inactive are those of the source. No cut-off for these calls is given here.

Experiments:
[1] = Growth inhibition of human BT474 cells incubated for 72 hrs by ATP detection based luminescent assay; type: functional, cell-based; conditions: BT-474, 72 h
[2] = Growth inhibition of human BT/LapR1.0 cells incubated for 72 hrs by ATP detection based luminescent assay; type: functional
[3] = Growth inhibition of human BT474 cells at 5 uM incubated for 72 hrs by ATP detection based luminescent assay; type: functional; conditions: BT-474, 72 h, read-out: GI
[4] = Growth inhibition of human BT/LapR1.0 cells at 5 uM incubated for 72 hrs by ATP detection based luminescent assay; type: functional; conditions: read-out: GI
MDA-MB-361 = test: Growth inhibition of human MDA-MB-361 cells at 5 uM incubated for 72 hrs by ATP detection based luminescent assay; type: functional; conditions: MDA-MB-361, 72 h, read-out: GI
[5] = Growth inhibition of human SKBR3 cells at 5 uM incubated for 72 hrs by ATP detection based luminescent assay; type: functional; conditions: SK-BR-3, 72 h, read-out: GI
[6] = Growth inhibition of human SK/LapR1.0 cells at 5 uM incubated for 72 hrs by ATP detection based luminescent assay; type: functional; conditions: read-out: GI
MDA-MB-453 = test: Growth inhibition of human MDA-MB-453 cells at 5 uM incubated for 72 hrs by ATP detection based luminescent assay; type: functional; conditions: MDA-MB-453, 72 h, read-out: GI
HepG2 = test: Growth inhibition of human HepG2 cells at 0.016 to 4 uM incubated for 72 hrs by ATP detection based luminescent assay; type: functional, cell-based
Huh-7 = test: Growth inhibition of human HuH7 cells at 0.016 to 4 uM incubated for 72 hrs by ATP detection based luminescent assay; type: functional, cell-based
NCI-N87 = test: Growth inhibition of human NCI-N87 cells at 0.016 to 4 uM incubated for 72 hrs by ATP detection based luminescent assay; type: functional, cell-based
BGC-823 = test: Growth inhibition of human BGC823 cells at 0.016 to 4 uM incubated for 72 hrs by ATP detection based luminescent assay; type: functional, cell-based
ASPC1 = test: Growth inhibition of human AsPC1 cells at 0.016 to 4 uM incubated for 72 hrs by ATP detection based luminescent assay; type: functional, cell-based
MIA PaCa-2 = test: Growth inhibition of human MIAPaCa2 cells at 0.016 to 4 uM incubated for 72 hrs by ATP detection based luminescent assay; type: functional, cell-based
COLO 205 = test: Growth inhibition of human COLO205 cells at 0.016 to 4 uM incubated for 72 hrs by ATP detection based luminescent assay; type: functional, cell-based
HT-29 = test: Growth inhibition of human HT-29 cells at 0.016 to 4 uM incubated for 72 hrs by ATP detection based luminescent assay; type: functional, cell-based
A549 = test: Growth inhibition of human A549 cells at 0.016 to 4 uM incubated for 72 hrs by ATP detection based luminescent assay; type: functional, cell-based
NCI-H460 = test: Growth inhibition of human H460 cells at 0.016 to 4 uM incubated for 72 hrs by ATP detection based luminescent assay; type: functional, cell-based
[7] = Growth inhibition of human WI38 cells at 0.016 to 4 uM incubated for 72 hrs by ATP detection based luminescent assay; type: cell-based; conditions: wi-38, 72 h
MRC5 = test: Growth inhibition of human MRC5 cells at 0.016 to 4 uM incubated for 72 hrs by ATP detection based luminescent assay; type: cell-based; conditions: mrc5, 72 h
[8] = Binding affinity to human HSP70 at 25 degC by surface plasmon resonance assay
Mus musculus [9] = test: Acute toxicity in female KM mouse assessed as mouse mortality at 1555 mg/kg dosed as single oral gavage measured after 5 mins during day 1 to day 14 post dose; type: organism-based; design: dose 1555 mg/kg, route oral; conditions: in vivo
Homo sapiens = species on record: Homo sapiens; test: Inhibition of HSP70 (unknown origin) at 200 uM pre-incubated for 30 mins followed by ATP addiction and measured after 3 hrs by malachite green reagent based colorimetric assay
Mus musculus [10] = test: Acute toxicity in male KM mouse assessed as mouse mortality at 1555 mg/kg dosed as single oral gavage measured after 5 mins during day 1 to day 14 post dose; type: organism-based; design: dose 1555 mg/kg, route oral; conditions: in vivo
Mus musculus [11] = test: Acute toxicity in female KM mouse assessed as mouse mortality at 1296 mg/kg dosed as single oral gavage measured during day 1 to day 14 post dose; type: organism-based; design: dose 1296 mg/kg, route oral; conditions: in vivo
Mus musculus [12] = test: Acute toxicity in male KM mouse assessed as mouse mortality at 1080 mg/kg dosed as single oral gavage measured during day 1 to day 14 post dose; type: organism-based; design: dose 1080 mg/kg, route oral; conditions: in vivo
Mus musculus [13] = test: Acute toxicity in female KM mouse assessed as mouse mortality at 625 mg/kg dosed as single oral gavage measured during day 1 to day 14 post dose; type: organism-based; design: dose 625 mg/kg, route oral; conditions: in vivo
Mus musculus [14] = test: Acute toxicity in male KM mouse assessed as mouse mortality at 520 mg/kg dosed as single oral gavage measured during day 1 to day 14 post dose; type: organism-based; design: dose 520 mg/kg, route oral; conditions: in vivo
Mus musculus [15] = test: Acute toxicity in female KM mouse assessed as mouse mortality at 520 mg/kg dosed as single oral gavage measured during day 1 to day 14 post dose; type: organism-based; design: dose 520 mg/kg, route oral; conditions: in vivo
Mus musculus [16] = test: Acute toxicity in female KM mouse assessed as induction of organ abnormalities mortality at 520 to 1555 mg/kg dosed as single oral gavage measured during day 1 to day 14 post dose; type: organism-based; design: dose 520-1555 mg/kg, route oral; conditions: in vivo
Mus musculus [17] = test: Acute toxicity in male KM mouse assessed as induction of organ abnormalities mortality at 520 to 1555 mg/kg dosed as single oral gavage measured during day 1 to day 14 post dose; type: organism-based; design: dose 520-1555 mg/kg, route oral; conditions: in vivo

| inhibition (Homo sapiens) | Structure (SMILES) | IC50 [1] | IC50 [2] | inhibition of growth at 5 µM [3] | inhibition of growth at 5 µM [4] | inhibition of growth at 5 µM (MDA-MB-361) | inhibition of growth at 5 µM [5] | inhibition of growth at 5 µM [6] | growth inhibition (GI) (HepG2) | growth inhibition (GI) (Huh-7) | growth inhibition (GI) (NCI-N87) | growth inhibition (GI) (BGC-823) | growth inhibition (GI) (ASPC1) | growth inhibition (GI) (MIA PaCa-2) | growth inhibition (GI) (COLO 205) | growth inhibition (GI) (HT-29) | growth inhibition (GI) (A549) | growth inhibition (GI) (NCI-H460) | growth inhibition (GI) [7] | growth inhibition (GI) (MRC5) | further results |
| --- | --- | --- | --- | --- | --- | --- | --- | --- | --- | --- | --- | --- | --- | --- | --- | --- | --- | --- | --- | --- | --- |
| 20.4% | CSc1nccc(N2CCC(N(C)Cc3c(F)cccc3Cl)CC2)n1 | 1040 nM | 940 nM | – | – | – | – | – | Active | Active | Active | Active | Active | Active | Active | Active | Active | Active | Non-toxic | Non-toxic | – |
| 11.6% | CSc1nccc(N2CCC(N(C)Cc3ccccc3Cl)CC2)n1 | 1990 nM | 1700 nM | 21.3% | 17.5% | 36.2% | 22.2% | 34.2% | Active | Active | Active | Active | Active | Active | Active | Active | Active | Active | Non-toxic | Non-toxic | inhibition of growth at 5 µM (MDA-MB-453): 45.3% |

The remaining lines, values behind:

| Structure (SMILES) | inhibition (Homo sapiens) | IC50 [1] | IC50 [2] | inhibition of growth at 5 µM [3] | inhibition of growth at 5 µM [4] | inhibition of growth at 5 µM (MDA-MB-361) | inhibition of growth at 5 µM [5] | inhibition of growth at 5 µM [6] | growth inhibition (GI) (HepG2) | growth inhibition (GI) (Huh-7) | growth inhibition (GI) (NCI-N87) | growth inhibition (GI) (BGC-823) | growth inhibition (GI) (ASPC1) | growth inhibition (GI) (MIA PaCa-2) | growth inhibition (GI) (COLO 205) | growth inhibition (GI) (HT-29) | growth inhibition (GI) (A549) | growth inhibition (GI) (NCI-H460) | growth inhibition (GI) [7] | growth inhibition (GI) (MRC5) | further results |
| --- | --- | --- | --- | --- | --- | --- | --- | --- | --- | --- | --- | --- | --- | --- | --- | --- | --- | --- | --- | --- | --- |
| CSc1nccc(N2CCC(N(C)Cc3ccc(C#N)cc3)CC2)n1 | 8.14% | 1410 nM | 1470 nM | 75.5% | 76.2% | 46.9% | 83.4% | 86.1% | Active | Active | Active | Active | Active | Active | Active | Active | Active | Active | Non-toxic | Non-toxic | inhibition of growth at 5 µM (MDA-MB-453): 82.4%; Kd [8]: 246 nM; Activity (Mus musculus [9]): Toxic; Activity (Mus musculus [10]): Toxic; Activity (Mus musculus [11]): Toxic; Activity (Mus musculus [12]): Toxic; Activity (Mus musculus [13]): Non-toxic; Activity (Mus musculus [14]): Non-toxic; Activity (Mus musculus [15]): Non-toxic; Activity (Mus musculus [16]): Non-toxic; Activity (Mus musculus [17]): Non-toxic |
| CSc1nccc(N2CCC(N(C)Cc3ccc(Cl)cc3Cl)CC2)n1 | 8.28% | 1620 nM | 1680 nM | – | – | – | – | – | Active | Active | Active | Active | Active | Active | Active | Active | Active | Active | Non-toxic | Non-toxic | – |
| CSc1nccc(N2CCC(N(C)Cc3c(Cl)cccc3Cl)CC2)n1 | 12.8% | 780 nM | 700 nM | 73.1% | 70% | 53.2% | 85.9% | 71% | Active | Active | Active | Active | Active | Active | Active | Active | Active | Active | Non-toxic | Non-toxic | inhibition of growth at 5 µM (MDA-MB-453): 79.2% |
